Measured values as given in patent US20150283120A1, “ANTIBIOTIC METHODS AND COMPOSITIONS FOR BACTERIA INFECTIONS” (THE UNIVERSITY OF CHICAGO, priority 2012, published 2015).
Entries after “also recorded” stand apart in the source; their conditions may differ. Structures can show the parent of a compound that is named as a salt. Where two headings read alike, the source gives them in different places.

Experiments:
vraR transcription = assay: Tertiary screen: qRT-PCR of vraR in strain 923; assay type: cell-based, Staphylococcus aureus; conditions: for classification of lux screen result against qRT-PCR (true/false repressor or stimulator): in the presence of oxacillin; for Effect on vraSR Transcription: With oxacillin / Effect on vraSR Transcription: Compound alone: qRT-PCR of vraR; for Effect on vraSR Transcription: With oxacillin: compound 10 μM + oxacillin 2 μg/mL; for Effect on vraSR Transcription: Compound alone: compound 10 μM, no oxacillin
MRSA strain 8004-01 = assay: Checkerboard oxacillin + compound, strain 8004-01; design: MIC OX / MIC OX (+) / MIC cmpd alone: unit not given beside the values; conditions: strain 8004-1 (ST239)
hVISA 2275 = assay: microbe, parasite or virus in culture; assay type: cell-based, Staphylococcus aureus; conditions: for MIC: Staphylococcus aureus
Text: (§1) As shown in the analysis of the checkerboard assays (Table 6), gossypol fully potentiated vancomycin (FIC i<0.5) in hVISA, VISA, VRS2 and VRS1. […] Clomiphene partially potentiated vancomycin in hVISA, VISA, and VRS1 and it fully potentiated in strain VRS2.

VRS2 = assay: microbe, parasite or virus in culture; assay type: cell-based, Staphylococcus aureus; conditions: Staphylococcus aureus
Text: as §1

VRS1 = assay: microbe, parasite or virus in culture; assay type: cell-based, Staphylococcus aureus; conditions: for MIC: Staphylococcus aureus; for Synergy category: with vancomycin
Text: as §1

diverse MRSA strains = assay: MIC of oxacillin with a single concentration of compound in multiple MRSA strains; assay type: cell-based, Staphylococcus aureus
Protocol: Testing potentiation of oxacillin by compounds in multiple MRSA strains: In order to be considered a synergistic agent in therapy of MRSA infection, it must be effective as a potentiator in diverse MRSA strains. To determine whether the oxacillin potentiators were effective against MRSA strains besides USA300, a single effective concentration of three compounds that were not known as antibiotics—gossypol, pyrvinium and clomiphene—were tested against multiple MRSA genetic backgrounds. Each compound was tested at a single optimal concentration, determined in the checkerboard assays, in combination with various concentrations of oxacillin. The strains included in this panel were from diverse genetic backgrounds as determined by multilocus sequence type (MLST) and contained a variety of SCCmec types. […] The MIC80 was […] for clomiphene, gossypol, and pyrvinium, respectively.

[1] = system: MRSA strain USA300-isolate 923; assay: Checkerboard MIC testing of compounds with oxacillin; assay type: cell-based, Staphylococcus aureus; conditions: for change of the MIC of oxacillin with compound concentration: strain 923, checkerboard
VISA 2283 = assay: microbe, parasite or virus in culture; assay type: cell-based, Staphylococcus aureus; design: MIC (in combination) Van+: unit not given beside the values; conditions: for MIC: Staphylococcus aureus; for Synergy category: with vancomycin
Text: as §1

[2] = system: vraSR transcription (Pvra::lux); assay type: cell-based, Staphylococcus aureus; conditions: compound 10 μM + oxacillin 2 μg/mL; for RL avg (relative luminescence): ratio of LU to oxacillin alone, four runs
Protocol: (§2) In the secondary screen each microtiter plate contained either cells in TSB alone (16 replicates), cells with oxacillin (2 μg/mL, 31 replicates), or cells with test compound and oxacillin (2 μg/mL, 49 wells). Each compound was assayed in four separate biological replicates.
(§3) All compounds classified in the primary screen as synergists that were vraSR-stimulating or -repressing (as shown in Table 8) were screened in a secondary assay for their effects on both growth and Pvra::lux induction by oxacillin. […] Each compound was tested four separate times at 10 μM in the presence of oxacillin (2 μg/mL) and luminescence was measured every 15 minutes. Relative growth (RG) and relative luminescence (RL) was calculated as the ratio between the OD600 or max LU value in the presence of compound and oxacillin over the average from pooled control values obtained from the same plate. […] Compounds that produced an average RG (ratio of the OD600 of the culture grown with test compound combined with oxacillin to that of oxacillin alone) of <0.8 were classified as oxacillin synergists or potentiators. The relative luminescence (RL) was the ratio of the LU produced in the presence of the test compound combined with oxacillin to that produced by oxacillin alone. Compounds were classified as “vraSR repressors” (mean RL of <0.8), “vraSR stimulators”, (mean RL>1.2), and “vraSR neutral” (mean RL between 0.80-1.2). […] In contrast, 34 compounds had no effect on growth in the presence of oxacillin (“un” in the OD600 category). Among the oxacillin potentiators, there were 2 vraSR stimulators, 3 vraSR neutral compounds and 10 vraSR repressors.

[3] = system: MRSA strain USA300 Pvra-lux; assay type: cell-based, Staphylococcus aureus; conditions: compound 10 μM + oxacillin 2 μg/mL; for RG avg (relative growth): ratio of OD600 to oxacillin alone, four runs
Protocol: as §2, §3

In the case of CCN(CC)CCOc1ccc(/C(=C(/Cl)c2ccccc2)c2ccccc2)cc1 [Clomiphene citrate (Z,E), 2-(4-(2-chloro-1,2-diphenylethenyl)phenoxy)-N,N-diethyl-ethanamine], the “classification of lux screen result against qRT-PCR (true/false repressor or stimulator)” value (vraR transcription) is reported as “true vraSR expression repressors”, the “Effect on vraSR Transcription: With oxacillin” value (shortened to “Effect … With oxacillin”) (vraR transcription; listed as clomifene) is reported as “vraR inhibitors; also recorded: repress” and the “FIC Compound” value (MRSA strain 8004-01) is reported as 0.5. The “FIC Ox” value (MRSA strain 8004-01) was “.03”, the MIC cmpd alone (MRSA strain 8004-01) was 10.4 and the “MIC cmpd +” value (MRSA strain 8004-01; compound in combination with oxacillin) was 5.2 µg/mL. The FICi (MRSA strain 8004-01; oxacillin + compound) was 0.53, the “MIC OX (+)” value (MRSA strain 8004-01; oxacillin in combination with compound) was 16 and the MIC (hVISA 2275; hVISA 2275, compound alone, read-out: MIC compound) was 12 µg/mL. For the same molecule, the Synergy category (hVISA 2275; hVISA 2275, with vancomycin, listed as Clo) was “partial (partially potentiated vancomycin (FIC i>0.5 and <1.0))”, the MIC (VRS2; VRS2, compound alone, read-out: MIC compound) was 12 µg/mL and the MIC (VRS1; VRS1, compound alone, read-out: MIC compound) was 12 µg/mL. The “FICi V + compound” value (VRS1; VRS1) was 0.75, the Synergy category (VRS1; VRS1) was “partially potentiated (partially potentiated vancomycin (FIC i>0.5 and <1.0))” and the Synergy category (VRS1; VRS1, listed as Clo) was “partial (partially potentiated vancomycin (FIC i>0.5 and <1.0))”. The “MIC 80 of Ox in presence of compound” value (diverse MRSA strains; panel of 11 MRSA isolates, clom 3.8 μM, gos 15 μM, pyr 0.5 μM) was 2 µg/mL, the “MIC50 of oxacillin in the presence of compound” value (diverse MRSA strains; panel of strains) was 0.5 µg/mL and the “MIC80 of oxacillin in the presence of compound” value (diverse MRSA strains; panel of strains) was 0.002 µg/mL. The “fold decrease in the oxacillin MIC50” value (diverse MRSA strains; panel of strains, with compound against oxacillin alone) was 32 fold, the “oxacillin MIC” value ([1]; strain 923, 24 h, compound 0.25 μM) was 32 µg/mL and the “oxacillin MIC” value ([1]; strain 923, 24 h, compound 0.5 μM) was 16 µg/mL. The “oxacillin MIC” value ([1]; strain 923, 24 h, compound 1 μM) was 32 µg/mL, the “oxacillin MIC” value ([1]; strain 923, 24 h, compound 2 μM) was 32 µg/mL and the “oxacillin MIC” value ([1]; strain 923, 24 h, compound 4 μM) was 8 µg/mL. The “oxacillin MIC” value ([1]; strain 923, 24 h, compound 8 μM) was 8 µg/mL, the “oxacillin MIC” value ([1]; strain 923, 24 h, compound 16 μM) was 2 µg/mL and the “change of the MIC of oxacillin with compound concentration” value [1] was “dose dependent decrease”. For the same molecule, the “bactericidal effect of oxacillin (MBC, >99.9% killing)” value ([1]; strain 923, wells with FICi≦0.5 spotted on TSA) was “increased the bactericidal effect of oxacillin”, the MIC (VISA 2283; VISA 2283, compound alone, read-out: MIC compound) was 12 µg/mL and the “FICi V + compound” value (VISA 2283; VISA 2283) was 0.75. For the same molecule, the “Van FIC” value (VISA 2283; VISA 2283) was 0.5, the “compound FIC” value (VISA 2283; VISA 2283) was 0.25 and the “fold decrease Van MIC” value (VISA 2283; VISA 2283) was 2 fold. For the same molecule, the “MIC (in combination) compound+” value (VISA 2283; VISA 2283, compound MIC with the indicated Van concentration) was 3, the “MIC (in combination) Van+” value (VISA 2283; VISA 2283, vancomycin MIC in combination with compound) was 4 and the Synergy category (VISA 2283; VISA 2283) was “partially potentiated (partially potentiated vancomycin (FIC i>0.5 and <1.0))”. The Synergy category (VISA 2283; VISA 2283, listed as Clo) was “partial (partially potentiated vancomycin (FIC i>0.5 and <1.0))”.

CC1=CC(=O)c2ccccc2C1=O [Menadione, 2-Methylnaphthalene-1,4-dione] was tested, and the “classification of lux screen result against qRT-PCR (true/false repressor or stimulator)” value (vraR transcription) was “true vraSR expression repressors”, the “Effect … With oxacillin” value (vraR transcription) was “vraR inhibitors; also recorded: repress” and the “oxacillin MIC” value ([1]; strain 923, Men 10.8 μM) was 16 µg/mL. The “oxacillin MIC” value ([1]; strain 923, Men 12.3 μM) was 16 µg/mL, the “oxacillin MIC” value ([1]; strain 923, Men 14.1 μM) was 16 µg/mL and the “oxacillin MIC” value ([1]; strain 923, Men 16.1 μM) was 2 µg/mL. The “oxacillin MIC” value ([1]; strain 923, Men 18.4 μM) was 2 µg/mL, the “oxacillin MIC” value ([1]; strain 923, Men 21 μM) was 2 µg/mL and the “oxacillin MIC” value ([1]; strain 923, Men 24 μM) was 2 µg/mL. For the same molecule, the “FICi (FIC index) with oxacillin” value ([1]; strain 923, in at least one combination (well)) was over 0.5, the MIC of oxacillin ([1]; strain 923, menadione at 16 μM) was 2 µg/mL and the “Effect on vraSR transcription” value [2] was “repress (“vraSR repressors” (mean RL of <0.8))”. The “RL avg (relative luminescence)” value [2] was 0.47, the OD600 category [3] was “inhibited (of <0.8 were classified as oxacillin synergists or potentiators)” and the “RG avg (relative growth)” value [3] was 0.69.

In the case of CCn1cc(C(=O)O)c(=O)c2cc(F)c(N3CCNCC3)cc21 [Norfloxacin, 1-ethyl-6-fluoro-4-oxo-7-piperazin-1-yl-1H-quinoline-3-carboxylic acid], the “classification of lux screen result against qRT-PCR (true/false repressor or stimulator)” value (vraR transcription) is reported as “true vraSR expression repressors”, the “Effect … With oxacillin” value (vraR transcription) is reported as “repress” and the “change of the MIC of oxacillin with compound concentration” value [1] is reported as “dose dependent decrease”. The “Effect on vraSR transcription” value [2] was “repress (“vraSR repressors” (mean RL of <0.8))”, the “RL avg (relative luminescence)” value [2] was 0.33 and the OD600 category [3] was “inhibited (of <0.8 were classified as oxacillin synergists or potentiators)”. For the same molecule, the “RG avg (relative growth)” value [3] was 0.40.

For C[C@H]1[C@H](C)CC[C@]2(C(=O)O)CC[C@]3(C)C(=CC[C@@H]4[C@@]5(C)CC[C@H](O)C(C)(C)[C@@H]5CC[C@]43C)[C@H]12 [Ursolic acid], the “Effect on vraSR Transcription: Compound alone” value (vraR transcription) was “stimulate”, the “Effect on vraSR transcription” value [2] was “repress (“vraSR repressors” (mean RL of <0.8))” and the “RL avg (relative luminescence)” value [2] was 0.71. For the same molecule, the OD600 category [3] was “inhibited (of <0.8 were classified as oxacillin synergists or potentiators)” and the “RG avg (relative growth)” value [3] was 0.77.

With CN[C@H](CC(C)C)C(=O)N[C@H]1C(=O)N[C@@H](CC(N)=O)C(=O)N[C@H]2C(=O)N[C@H]3C(=O)N[C@H](C(=O)N[C@H](C(=O)O)c4cc(O)cc(O)c4-c4cc3ccc4O)[C@H](O)c3ccc(c(Cl)c3)Oc3cc2cc(c3O[C@@H]2O[C@H](CO)[C@@H](O)[C@H](O)[C@H]2O[C@H]2C[C@](C)(N)[C@H](O)[C@H](C)O2)Oc2ccc(cc2Cl)[C@H]1O [vancomycin] the MIC (hVISA 2275; read-out: MIC Van) was 4 µg/mL, the MIC (VRS2; read-out: MIC Van) was 16 µg/mL and the MIC (VRS1; read-out: MIC Van) was 1020 µg/mL. The MIC (VISA 2283; VISA, read-out: MIC Van, VISA 2283, vancomycin alone) was 16 µg/mL, the “MIC Van” value (VISA 2283; VISA 2283, vancomycin alone) was 8 µg/mL and the “MIC Van” value (VISA 2283; VISA 2283, vancomycin alone, listed as Van) was 8 µg/mL.

With Spiramycin the “Effect … With oxacillin” value (vraR transcription) was “super-stimulate”, the “Effect on vraSR Transcription: Compound alone” value (vraR transcription) was “None” and the “Effect on vraSR transcription” value [2] was “repress (“vraSR repressors” (mean RL of <0.8))”. The “RL avg (relative luminescence)” value [2] was 0.31, the OD600 category [3] was “inhibited (of <0.8 were classified as oxacillin synergists or potentiators)” and the “RG avg (relative growth)” value [3] was 0.43.
